Measurements taken from patent US20040228930A1, “Treatment for hemorrhagic shock” (priority 2002, published 2004).

Experiments:
Assay type in all cases: in vivo
[1] = tested on: hemorrhage-induced liver hypoxia; experiment: EF5 hypoxic imaging of liver in hemorrhaged mice
Protocol: (§1) Hemorrhagic shock was induced in mice as follows: C57/BL6 or il-10^−/− mice (Jackson Laboratories) (n=3/group) weighing 20-26 grams were anesthetized with pentobarbital (70 mg/kg; IP). The right and left femoral arteries were cannulated. The left arterial catheter was connected to a monitor to follow MAP and heart rate. Over 10 minutes, blood was withdrawn via the right catheter while monitoring blood pressure to achieve an MAP of 25 mmHg. Blood was withdrawn and returned to the animal as necessary in order to maintain a MAP of 25 mmHg. Sham animals were cannulated but not subjected to hemorrhage. At the end of the shock period (90-150 minutes), mice were resuscitated with the shed blood plus two times that volume with Ringer's lactate solution over 15-30 minutes. Animals were sacrificed 4-24 hours following the initiation of resuscitation and blood, liver, lungs, and intestines were collected.
The technique of observing uptake of EF5 (2-[2-nitro-1H-imidazol-1-yl]-N-(2,2,3,3,3-pentafluoropropyl) acetamide) to monitor tissue hypoxia is well established and reliable. […] Intensity of staining was determined by measuring mean fluorescence in 10 different sections per animal (n=5 per group; MetaMorph®). […] These forms of the compound bind irreversibly to proteins within the cell, which can then be detected by immunohistochemistry. […]

[2] = tested on: IL-10; experiment: Serum IL-10 by ELISA in mice subjected to HS/R; conditions: CO 250 ppm throughout HS/R, 4 hours after resuscitation, P<0.05 vs sham and shock controls
Protocol: as §1
(§2) Serum levels of the cytokines interleukin-6 (IL-6), tumor necrosis factor alpha (TNF-α), and interleukin-10 (IL-10) were determined by enzyme-linked immunosorbent assay (ELISA) (R&D systems) according to the manufacturer's instructions. These cytokines were measured because they mediate inflammation. Levels of pro-inflammatory cytokines can increase following hemorrhagic shock and can exacerbate hemodynamics and contribute to the development of multiple organ dysfunction. […]

[3] = tested on: il-10−/− mice subjected to HS/R; experiment: Serum ALT in il-10−/− mice subjected to HS/R
Protocol: as §1
A colorimetric analysis for serum alanine aminotransferase (ALT) level was used to determine whether liver injury occurred in mice subjected to HS/R. The alanine aminotransferase test is one of a group of tests known as liver function tests and is used to monitor damage to the liver. Alanine aminotransferase is an enzyme that is normally expressed in the liver and under normal circumstances is present in serum samples at very low levels. […]

[4] = tested on: mice subjected to HS/R; experiment: Serum ALT (liver injury) in mice subjected to HS/R
Protocol: as §1
A colorimetric analysis for serum alanine aminotransferase (ALT) level was used to determine whether liver injury occurred in mice subjected to HS/R. The alanine aminotransferase test is one of a group of tests known as liver function tests and is used to monitor damage to the liver. Alanine aminotransferase is an enzyme that is normally expressed in the liver and under normal circumstances is present in serum samples at very low levels. Increased levels of ALT in the serum are indicative of liver cell death and/or liver failure.
Mice were exposed to CO at a concentration of 250 ppm. Briefly, 1% CO in air was mixed with air (21% oxygen) in a stainless steel mixing cylinder and then directed into a 3.70 ft^3 glass exposure chamber at a flow rate of 12 L/min. A CO analyzer (Interscan, Chatsworth, Calif.) was used to measure CO levels continuously in the chamber. CO concentrations were maintained at 250 ppm at all times. Mice were placed in the exposure chamber as required. […]

[5] = tested on: mice subjected to HS/R; experiment: Lung myeloperoxidase (MPO) activity in mice subjected to HS/R
[6] = tested on: IL-6; experiment: Serum IL-6 by ELISA in mice subjected to HS/R; conditions: CO 250 ppm throughout HS/R, 4 hours after resuscitation, P<0.05 vs untreated HS/R mice
Protocol: as §1, §2

[7] = tested on: mice subjected to HS/R; experiment: Intestinal histology (H&E) in mice subjected to HS/R; conditions: CO 250 ppm throughout HS/R, 4 hours after resuscitation
Protocol: as §1
Harvested intestines were flushed and fixed in 2% paraformaldehyde for 2 hours and then 30% sucrose for 12 hours. Specimens were frozen slowly in cold 2-methylbutane. Sections were stained using hematoxylin and eosin (H&E) and architectural changes were evaluated.
Mice were exposed to CO at a concentration of 250 ppm. Briefly, 1% CO in air was mixed with air (21% oxygen) in a stainless steel mixing cylinder and then directed into a 3.70 ft^3 glass exposure chamber at a flow rate of 12 L/min. […]

[8] = tested on: il-10−/− mice subjected to HS/R; experiment: Lung MPO activity in il-10−/− mice subjected to HS/R
[9] = CO 250 ppm throughout HS/R, 4 hours after resuscitation, P<0.05

[C-]#[O+] [CO, carbon monoxide]
liver hypoxia (EF5) compared to air-treated sham controls ([1]; CO-treated sham controls, 250 ppm): no increase
increase in liver EF5 staining compared to air-treated sham controls ([1]; shocked mice, CO 250 ppm initiated at onset of shock, 90 minutes after initiation of shock, P<0.05 vs air-treated shocked mice): 3.7±0.7 fold
increase in serum IL-10 levels in shocked mice [2]: 5.4 fold
protection against HS/R-induced liver injury (serum ALT) [3]: did not appear to protect
serum ALT compared to untreated mice [4, 9]: significantly lowered
serum ALT compared to untreated shocked mice ([4]; CO during resuscitation only, 24 hours after resuscitation): significantly lower
protection against liver injury ([4]; CO initiated during resuscitation only, 4-hour time point following resuscitation (data not shown)): no demonstrable protection
lung MPO activity compared to untreated mice [5, 9]: significantly lowered
lung MPO activity ([5]; CO initiated during resuscitation only, after 4 hours): significantly improved
HS/R-induced increase in serum IL-6 [6]: significantly abrogated
intestinal histology of CO-treated shocked mice [7]: more closely resembled CO- and air-treated sham controls
protection against HS/R-induced lung injury (lung MPO activity) [8]: did not appear to protect
